Results taken from US20230355625A1, “METHODS OF TREATMENT” (INTRA-CELLULAR THERAPIES, INC., priority 2019, published 2023).

Legend:
[1] = test system: healthy human individuals; assay: BOLD-fMRI during the extinction phase of a fear conditioning task; format: in vivo; details: single oral doses of 1 mg or 10 mg vs placebo; FIG. 1
Description: A randomized, double-blind, placebo-controlled, within-subjects study was carried out with healthy human individuals to determine whether the PDE1 inhibitors according to the present disclosure induce changes in blood oxygen level dependent functional magnetic resonance imaging (BOLD-fMRI) signals in the dorsal anterior insula (dAI) during the extinction phase of a fear conditioning task. To test these effects, Compound 1 was administered to healthy human patients. Compound 1 (ITI-214) is shown below:
The insula is a small brain region that is essential for the mind-body connection, where body sensations are translated into emotion. Anterior insula reactivity has been associated with anticipating significant events, and increased anterior insula activity has been associated with anxiety. Conditioning, including fear conditioning and extinction, is a brain activity during learning. […]
Patients were administered single oral doses of placebo, or doses of Compound 1 at 1 mg or 10 mg. Brain activity was then measured during BOLD-fMRI scanning at 3 Tesla. […] Region-of-interest (ROI) analyses for the dAI, IFG, and other prespecified regions were computed using linear mixed models in R. The brain's response is measured in each subject by fMRI scans, which is summarized in FIG. 1.

[2] = test system: healthy human individuals; assay: BOLD-fMRI during a stop signal task; format: in vivo
Description: The Stop Signal task is a way to measure behavioral and neural responses to inhibitory processing.
Patients were again administered single oral doses of placebo, Compound 1 at 1 mg or 10 mg. Brain activity was then measured during BOLD-fMRI scanning at 3 Tesla. In this study, participants are presented with a visual and/or audio cue and two buttons. The subjects are instructed to press the left button as quickly as possible when an ‘X’ appears on a screen and the right button when an ‘O’ appears. Participants also are instructed not to press either button when they hear a tone, which constitute the Stop trials. There are two different kinds of Stop trials presented during the task, namely easy and hard trials. Easy trials consist of the tone cue being presented simulataneously with the visual ‘X’ or ‘O’ making it easier to suppress a response. Hard trials consist of the tone being presented after a brief delay, making it harder to process the tone and suppress a response.
This consistency provides confidence in the findings.

preclinical models = preclinical models of cognitive performance; format: in vivo
animal models = details: cited from earlier work
healthy humans = details: cited from earlier work; for fear extinction learning: humans
[3] = in vivo; cited from earlier work

Structure (SMILES) | insula activity (dorsal anterior insula BOLD-fMRI signal) during fear extinction [1] | activity in the dorsolateral prefrontal cortex during stop signal task ([2]; FIG. 3) | activity in the dorsal anterior cingulate cortex during stop signal task ([2]; FIG. 4) | activity in the anterior insula during stop signal task ([2]; FIG. 5) | activation in the frontal gyrus ([2]; human, 1 mg where stated) | activation in the inferior frontal gyrus during correctly inhibited Stop trials, easy trials (correcteasy) ([2]; single oral dose 1 mg, FIG. 2) | activation in the inferior frontal gyrus during correctly inhibited Stop trials, hard trials (correcthard) ([2]; single oral dose 1 mg, FIG. 2) | cognitive performance (preclinical models) | psychomotor hyperactivity (preclinical models) | extinction of contextual fear (cognitive function) (animal models) | effect on the bilateral anterior insula during a fear extinction task (healthy humans; healthy humans) | fear extinction learning (healthy humans) | activation in the frontal gyrus during a stop signal task [3] | inhibitory performance during a stop signal task [3]
CN1C(=O)c2c(nn(Cc3ccc(-c4cccc(F)n4)cc3)c2Nc2ccccc2)N2C1=N[C@@H]1CCC[C@@H]12 [Compound 1] | slightly attenuated | increased activity | increased activity | increased activity | increased activation | significantly increased activation | significantly increased activation | improved cognitive performance | without psychomotor hyperactivity |  |  |  |  | 
COC(=O)C(c1ccccc1)C1CCCCN1 (stereo not drawn) [methylphenidate] |  |  |  |  |  |  |  |  |  | enhanced extinction of contextual fear | attenuating effect | enhancement of fear extinction learning | increase activation | improve inhibitory performance
NC(=O)C[S+]([O-])C(c1ccccc1)c1ccccc1 (stereo not drawn) [modafinil] |  |  |  |  |  |  |  |  |  | enhanced extinction of contextual fear |  | enhancement of fear extinction learning | increase activation | improve inhibitory performance
